From ChEMBL document CHEMBL5244230, “Artemisinin-derived hybrids and their anticancer activity” (Eur J Med Chem, 2020) come the findings set out here.

The test system of assay [1] is HT-29. Description: Antiproliferative activity against human HT-29 cells assessed as reduction in cell viability. The format is functional, cell-based.
The test system of assay [2] is A549. Description: Antiproliferative activity against human A549 cells. Format: functional, cell-based.
The test system of assay [3] is MDA-MB-231. Put plainly: Antiproliferative activity against human MDA-MB-231 cells. The format is functional, cell-based. Particulars: Homo sapiens, MDA-MB-231.
Assay [4] in a line: Antiproliferative activity against human U-87 MG cells. Format: functional, cell-based, U-87MG ATCC.
The subject of assay [5] is NCI-H460. Put plainly: Antiproliferative activity against human NCI-H460 cells. Format: functional, cell-based.
Assay [6] concerns MCF7. Description: Anticancer activity against human MCF7 cells. Format: functional, cell-based.
The subject of assay [7] is MDA-MB-231. Description: Antiproliferative activity against human MDA-MB-231 cells assessed as reduction in cell viability. The format is functional, cell-based.

In the case of `C[C@H]1[C@H](OCCOc2cccc(/C=C/S(=O)(=O)Nc3ccccc3)c2)O[C@@H]2O[C@@]3(C)CC[C@H]4[C@H](C)CC[C@@H]1[C@@]24OO3`, the IC50 in assay [1], in assay [2], in assay [3], in assay [4] and in assay [5] was 50 nM throughout.

For `Cc1ccc(F)c(NS(=O)(=O)/C=C/c2ccc(OCc3ccc(C(=O)NCCO[C@@H]4O[C@@H]5O[C@@]6(C)CC[C@H]7[C@H](C)CC[C@@H]([C@H]4C)[C@@]57OO6)cc3)cc2)c1`, the IC50 in assay [1], in assay [2], in assay [3], in assay [4] and in assay [5] was 90 nM throughout.

With `C[C@H]1[C@H](OCCNC(=O)c2ccc(COc3ccc(/C=C/S(=O)(=O)Nc4ccc(OC(F)(F)F)cc4)cc3)cc2)O[C@@H]2O[C@@]3(C)CC[C@H]4[C@H](C)CC[C@@H]1[C@@]24OO3`, the half-inhibitory concentration (IC50) in assay [1], in assay [3] and in assay [4] was 90 nM each time.

On to `Cc1ccccc1NS(=O)(=O)/C=C/c1cccc(OCCO[C@@H]2O[C@@H]3O[C@@]4(C)CC[C@H]5[C@H](C)CC[C@@H]([C@H]2C)[C@@]35OO4)c1`, for which the IC50 in assay [1], in assay [2], in assay [3], in assay [4] and in assay [5] was 50 nM in each case.

As for `COc1cc([C@@H]2c3cc4c(cc3[C@@H](O[C@@H]3O[C@@H]5CO[C@@H](C)O[C@H]5[C@H](O)[C@H]3O)[C@H]3COC(=O)[C@H]23)OCO4)cc(OC)c1O` [ETOPOSIDE], in assay [6], the concentration for half-maximal inhibition (IC50) came out at 830 nM.

As to `C[C@H]1[C@H](OCCNC(=O)c2ccc(COc3ccc(/C=C/S(=O)(=O)Nc4cccc(Cl)c4)cc3)cc2)O[C@@H]2O[C@@]3(C)CC[C@H]4[C@H](C)CC[C@@H]1[C@@]24OO3`, the 50% inhibitory concentration (IC50) in assay [1], in assay [2], in assay [3] and in assay [5] was 90 nM throughout.

In the case of `C.C[C@H]1[C@@H](CC(=O)O[C@@H]2C[C@@H](OC(=O)C[C@H]3O[C@@H]4O[C@@]5(C)CC[C@H]6[C@H](C)CC[C@@H]([C@H]3C)[C@@]46OO5)[C@H](C)O[C@H]2O[C@H](C)CCCCC(=O)O)O[C@@H]2O[C@@]3(C)CC[C@H]4[C@H](C)CC[C@@H]1[C@@]24OO3`, the IC50 in assay [7], in assay [6] and in assay [2] was 5500 nM throughout.

`C[C@H]1[C@H](OCCNC(=O)c2ccc(COc3ccc(/C=C/S(=O)(=O)Nc4ccc(Cl)cc4)cc3)cc2)O[C@@H]2O[C@@]3(C)CC[C@H]4[C@H](C)CC[C@@H]1[C@@]24OO3`: the IC50 in assay [1], in assay [3], in assay [4] and in assay [5] was 90 nM in each case.

On to `C[C@H]1[C@H](OCCOc2cccc(/C=C/S(=O)(=O)Nc3c(Cl)cccc3Cl)c2)O[C@@H]2O[C@@]3(C)CC[C@H]4[C@H](C)CC[C@@H]1[C@@]24OO3`, for which the IC50 in assay [1], in assay [2], in assay [3], in assay [4] and in assay [5] was 50 nM in each case.

`Cc1ccc(F)c(NS(=O)(=O)/C=C/c2cccc(OCCOC3O[C@@H]4O[C@@]5(C)CC[C@H]6[C@H](C)CC[C@@H]([C@H]3C)[C@@]46OO5)c2)c1` (stereo partly drawn): the 50% inhibitory concentration (IC50) in assay [1], in assay [2], in assay [3], in assay [4] and in assay [5] was 50 nM throughout.

For the compound `C[C@H]1[C@@H](CC(=O)O[C@@H]2C[C@@H](OC(=O)C[C@H]3O[C@@H]4O[C@@]5(C)CC[C@H]6[C@H](C)CC[C@@H]([C@H]3C)[C@@]46OO5)[C@H](C)O[C@H]2O[C@H](C)CCCCC2OCOO2)O[C@@H]2O[C@@]3(C)CC[C@H]4[C@H](C)CC[C@@H]1[C@@]24OO3` (stereo partly drawn), the IC50 in assay [7], in assay [6] and in assay [2] was 5500 nM throughout.
